{
  "source": "patent US6013642A",
  "about": "“Use of estrone derivatives as steroid sulphatase inhibitors” (priority 1994, dated 2000)",
  "key": {"[1]": {"target": "T1, human placental microsomal DHEAS sulphatase (Homo sapiens, UniProt P08842)", "T1 construct": "Human placental microsomes prepared as described in; from tissue; host or cells: human placenta, microsomes (prepared as Santner et al 1984)", "T1 sequence (P08842 22-583)": "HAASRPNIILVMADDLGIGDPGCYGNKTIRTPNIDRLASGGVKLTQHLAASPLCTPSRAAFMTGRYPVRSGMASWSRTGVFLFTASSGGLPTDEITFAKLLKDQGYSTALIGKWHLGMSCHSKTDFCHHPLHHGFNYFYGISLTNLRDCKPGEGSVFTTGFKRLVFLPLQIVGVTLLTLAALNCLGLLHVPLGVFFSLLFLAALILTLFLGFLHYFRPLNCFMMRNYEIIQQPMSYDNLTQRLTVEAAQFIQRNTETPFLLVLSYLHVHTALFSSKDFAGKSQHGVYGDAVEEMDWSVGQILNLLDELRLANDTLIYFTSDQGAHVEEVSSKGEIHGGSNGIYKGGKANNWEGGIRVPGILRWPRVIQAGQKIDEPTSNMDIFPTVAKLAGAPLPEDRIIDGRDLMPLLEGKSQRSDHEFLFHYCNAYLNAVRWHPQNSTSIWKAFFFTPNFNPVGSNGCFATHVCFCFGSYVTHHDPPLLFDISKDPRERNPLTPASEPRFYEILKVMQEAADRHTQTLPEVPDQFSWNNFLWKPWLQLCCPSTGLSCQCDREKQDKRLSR", "test": "Human placental microsomal steroid sulphatase assay", "format": "biochemical", "experimental": "a) Human placental microsomal steroid sulphatase\nENZYME: Human placental microsomes prepared as described in (Santner, S. J., et al (1984) J. Clin. Endocrinol. Metab. 59 29).\nASSAY: All assays were carried out in (at least) duplicate. The reaction mixture consisted of either PBS+250 mM sucrose (placental microsomes), containing 1 μmol/1 DHEAS [concentration chosen because approx. […]] with 0.05% (v/v) [^3 H] substrate and 0.05% (v/v) [^14 C] DHEA) in 0.5% (v/v DMSO. The reaction was initiated by addition of appropriately diluted) such that 10% substrate conversion occurred during the assay) enzyme and incubated for 30 min at 30° C. Reactions were stopped by addition of 1000 μl toluene to the reaction mixture, vortexed (2*40 sec on max setting of multitube vortexer), then allow to settle for 5 min. 500 μl top (solvent) layer removed to scintillation vial. add 10 ml scintillation fluid (Ultima Gold XR) then counted for radioactivity on a scintillation counter. As controls, enzyme was excluded from some reaction mixtures and 50% solvent and aqueous layers removed and counted for radioactivity in order to determine background (in solvent layer) and total (in aqueous layer) [^3 H]. [^14 C] DHEA is included to enable back correction to allow for product (DHEA) recovery (normally >98%). […]"}, "[2]": {"system": "mouse contact sensitisation model", "test": "Cellular infiltrate (anti-CD3 / anti-Mac-1 positive cells) in challenged ears, contact sensitisation", "format": "in vivo, mice", "details": "Experiment 7, FIG. 10, 24 h following challenge", "experimental": "Animals were randomised into 7 groups (n=7-10) and steroids given on days 0 and 5. At 24 h following challenge, ears were removed, fixed and stained with either an anti-CD3 (T-cells) or anti-Mac-1 (monocytes/macrophages) antibody and the number of positive cells counted in 10 random fields."}, "[3]": {"system": "collagen II-induced arthritis", "test": "Collagen II-induced arthritis in mice", "format": "in vivo, Male DBA/1 mice", "details": "FIG. 13; CT2251 10 mg/kg on day -1 and weekly", "experimental": "Male DBA/1 mice were sensitised with type II collagen into the base of the tail in FCA in day 0. These animals received a further injection of CII in FICA (Freunds Incomplete Adjuvant) on day 18 and incidence and severity of arthritis assessed from day 25. Mice were randomised into 3 groups (n=10)."}, "carrageenan pleurisy": {"system": "carrageenan pleurisy", "test": "Carrageenan pleurisy", "format": "in vivo, Wistar Rats", "details": "FIG. 14; CT2251 10 mg/kg p.o. at -24 h and -1 h; six hours", "experimental": "Wistar Rats were anaesthetised and given intra-pleural injections of 0.5% carrageenan in saline at time 0. Six hours later the animals were killed and pleural cavity lavaged with 1 ml. citrated saline. Volume of fluid exudate and exudate cell concentration were measured. Animals were randomised to 5 treatment groups (n=6)."}, "U937 DHEAS sulphatase": {"target": "T2, U937 DHEAS sulphatase (Homo sapiens, UniProt P08842)", "T2 construct": "DHEAS sulphatase activity in U937 cell extracts; endogenous in cells; host or cells: U937 cells (sonicate in Tris buffered saline with 1% Triton X-100)", "T2 sequence (P08842 22-583)": "T1 sequence (P08842 22-583)", "test": "DHEAS sulphatase activity in U937 cell extracts", "format": "biochemical", "experimental": "c) DHEAS sulphatase activity in U937 cell extracts.\nThe inhibitors Ct 2211 and Ct 2251 were dissolved in 100% ethanol and 100% dimethyl sulphoxide (DMSO) respectively at stock concentrations of 20 mM. These were titrated in their respective solvents over a range of assay concentrations. The tritiated substrates DHEA sulphate and estrone sulphate were obtained from New England Nuclear and diluted in ethanol to give a final concentration of 70 nM for use in the assay. U937 cells were grown in RPLI containing 10% foetal bovine serum and harvested at a cell concentration of 1×10^6 /ml. These were washed in serum free medium stored at -70° C. at 1×10^8 /ml in Tris buffered saline pH7.4+1% triton X-100 and sonicated prior to use in the assay.\n50 μl of substrate in ethanol was added to each assay tube and the solvent removed in a rotary vacuum evaporator. […] After centrifugation scintillation fluid was added to extract the desulphated substrate and the CPM present in an aliquot of the organic phase were counted using a beta counter.\nIn order to obtain total counts 10 μl of the aqueous fraction of the duplicate tubes containing only hot DHEA-s were counted after addition of scintillant and the total cpm calculated as follows: [formula] where vo +inhibitor-rate in the presence of inhibitor and vo -inhibitor=rate in the absence of inhibitor.\nIC50 determined as described previously."}},
  "data": [
    {"molecule": "C[C@]12CC[C@@H]3c4ccc(OS(N)(=O)=O)cc4CC[C@H]3[C@@H]1CCC2=O", "note": "[CT 2251, Estrone 3-0-sulphamate]", "values": [
      {"measurement": "IC50", "setting": "[1]", "result": 0.005, "unit": "µM"},
      {"measurement": "effect on DHEAS-augmented cell infiltrate", "setting": "[2]; CT2251 10 mg/kg with DHEAS 5 mg/kg", "result": "effectively reversed"},
      {"measurement": "number of infiltrating CD3 positive cells, inhibitor on its own", "setting": "[2]; CT2251 10 mg/kg", "result": "able to further reduce the number of infiltrating CD3 positive cells"},
      {"measurement": "development of arthritis (incidence and severity)", "setting": "[3]", "result": "prevented the development of any disease"},
      {"measurement": "reduction of cell infiltrate", "setting": "carrageenan pleurisy", "result": 28, "unit": "%"},
      {"measurement": "reduction of exudate volume", "setting": "carrageenan pleurisy", "result": 43, "unit": "%"},
      {"measurement": "IC50", "setting": "U937 DHEAS sulphatase", "result": 0.04, "unit": "µM"},
      {"measurement": "inhibition of U937 sulphatase with estrone sulphate as substrate", "setting": "U937 DHEAS sulphatase; FIG. 3, estrone sulphate substrate", "result": "inhibit"}
    ]}
  ]
}
